Experimental findings from US20250304623A1, “PEPTIDES FOR INTRACELLULAR DELIVERY” (UNIVERSIDADE DE SANTIAGO DE COMPOSTELA, priority 2022, published 2025) are described below.

Holding throughout (type): cell-based
In test [1] the test system is HepG2 cells expressing EGFP. The experiment in a line: EGFP-targeting siRNA delivery (GFP silencing vs siMOCK), HepG2. Summed up:
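After 72 h, a plate reader measured EGFP fluorescence in HepG2 EGFP cells transfected with amphiphile/siRNA complexes (30 nM siGFP). Silencing was expressed as percent fluorescence decrease relative to cells given non-targeting siMOCK, with untreated-cell background subtracted. Triplicate means were reported, and Lipofectamine RNAiMAX served as a comparison.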

Test [2] has as its system HCT116 cells expressing EGFP. The experiment in a line: Cas9-RNP delivery against EGFP (gene editing, plate reader), HCT116. In outline:
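Gene editing was estimated as the percent drop in GFP fluorescence relative to untreated cells, after subtracting background from untreated controls; triplicate means were reported. EGFP-expressing HCT116 cells received RNP/amphiphile mixtures in DMEM for 4 h, then fresh DMEM with 10% FBS. Total fluorescence was measured 72 h later on a plate reader.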

For test [3], the system named is Hela cells expressing EGFP. Description: Cas9-RNP delivery against EGFP (gene editing, plate reader), HeLa. Conditions: for % GFP silencing due to gene editing (Cas9-RNP): HeLa. In outline: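 HeLa cells stably expressing EGFP were plated in 96-well plates at 50,000 cell/mL (100 μL/w) in DMEM+10% FBS+1% Gln-Abt one day ahead. Cas9-RNP targeting EGFP was premixed with amphiphile for 30 min at room temperature, applied for 4 h at 50 nM RNP, then medium was replaced; EGFP fluorescence was read on a plate reader after 72 h, in triplicate.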

*: point of attachment. NHNH2 = NN*

Take Ac-RRLK*RLK*RRLK*RL-NH2 [Peptide 13.3]: the “percentage of GFP-silencing relative to siMOCK” value in test [1] (Dodecanal, 10 μM) worked out at 31%; in test [1] (Dodecanal, 15 μM) it was 33%; in test [1] (Myristoleyl, 5 μM), 13%; in test [1] (Myristoleyl, 10 μM), 20%; in test [1] (Palmitoleyl, 5 μM), 19%; in test [1] (Palmitoleyl, 10 μM), 46%. The “percentage of GFP-silencing relative to siMOCK” value in test [1] (Palmitoleyl, 15 μM) was 10%; in test [1] (Petroselinyl, 5 μM), 9%; in test [1] (Petroselinyl, 10 μM) it was 41%; in test [1] (Petroselinyl, 15 μM) it was 8%. In addition, the “percentage of gene editing, GFP fluorescence intensity decrease (% of reduction)” value is 25% in test [2] (Dodecanal, 5 μM); 10% in test [2] (Dodecanal, 10 μM); 20% in test [2] (Dodecanal, 15 μM); 10% in test [2] (Myristoleyl, 15 μM); −1% in test [2] (Oleyl, 5 μM); −18% in test [2] (Palmitoleyl, 5 μM). Further, the “percentage of gene editing, GFP fluorescence intensity decrease (% of reduction)” value in test [2] (Palmitoleyl, 15 μM) is given as 18%; in test [3] (Myristoleyl, 5 μM, HeLa cells) it was 29%; in test [3] (Myristoleyl, 15 μM, Hela cells), 86%; in test [3] (Palmitoleyl, 5 μM, HeLa cells), 18%; in test [3] (Palmitoleyl, 10 μM, HeLa cells) it was 68%; in test [3] (Palmitoleyl, 15 μM, Hela cells), 80%. Also, in test [3] (Petroselinyl, 15 μM, Hela cells), the “percentage of gene editing, GFP fluorescence intensity decrease (% of reduction)” value is 85%. Moreover, the “% GFP silencing due to gene editing (Cas9-RNP)” value in test [3] (5 μM, Ole tail) is listed as 76%; in test [3] (5 μM, Pal tail), 68%; in test [3] (5 μM, Pet tail) it was 63%.
With “Ac-RRLK*RLLRRLK*RL-NH2 (Ac-RRLK(NHNH2)RLLRRLK(NHNH2)RL-NH2; not fully specified; printed as Ac-RRLK*RLLRRLK*RL-NH2; also: K*4,K*11: native or modified lysine (ε-amide to a linker)) [Peptide 13.2]”, the “percentage of GFP-silencing relative to siMOCK” value in test [1] (Dodecanal, 10 μM) is 13%; in test [1] (Dodecanal, 15 μM) it was −5%; in test [1] (Palmitoleyl, 5 μM), 16%; in test [1] (Palmitoleyl, 10 μM) it was 4%; in test [1] (Palmitoleyl, 15 μM), 7%; in test [1] (Petroselinyl, 5 μM), −11%. In addition, the “percentage of GFP-silencing relative to siMOCK” value was 2% in test [1] (Petroselinyl, 10 μM) and 0% in test [1] (Petroselinyl, 15 μM). The “percentage of gene editing, GFP fluorescence intensity decrease (% of reduction)” value in test [2] (Oleyl, 5 μM) is given as −6%; in test [3] (Oleyl, 5 μM, HeLa cells), 21%; in test [3] (Oleyl, 10 μM, HeLa cells), 62%.
